In one data set the test system is human PSMA. The data set can be described thus: IFNγ ELISPOT of splenocytes, PSMA DNA constructs by PMED in Pasteur (HLA A2/DR1) mice. The data set is classed as in vivo, mouse. The settings on record: positive SFC>50. The text has this: Two human HLA transgenic mouse models were used to evaluate the presentation of various PSMA antigens by different HLAs and a human PSMA transgenic mouse model was used to assess the breaking of immune tolerance to human PSMA. The first HLA transgenic mouse model utilizes the HLA A2/DR1 mice (from the Pasteur Institute, Paris, France; also referred to as “Pasteur mice”). […] The second HLA transgenic mouse model uses mice that are knock in with human HLA A24 that is covalently linked to the human β-2-microglobulin at the H2bk locus. […] This model allows evaluation of antigen presentation in the context of human HLA A24.
Eight-to-10 week-old transgenic mice were immunized using PMED method with various PSMA DNA constructs in a prime/boost/boost regimen, two weeks apart between each vaccination. Alternatively, mice were primed with adenovirus vectors encoding the PSMA antigen at 1×10^9 viral particles in 50 μl (PBS) by intramuscular injection. The adenovirus vector (pShuttle-CMV vector from Stratagene) was modified to contain NheI and BgIII restriction sites within the multiple cloning site. The DNA encoding human PSMA modified was then restriction digested with NheI and BgIII, ligated into this vector and sequence confirmed. The pShuttle human PSMA modified vector was then recombined with the pAdEasy-1 vector and virus was propagated according to the AdEasy system (Stratagene). Twenty-days later, they were boosted with PMED as described above. In each of the regimens used, antigen specific T cell response was measured 7 days after the last immunization in an interferon-gamma (IFNγ) ELISPOT assay. The ELISPOT assay is similar to the sandwich enzyme-linked immunosorbent assay (ELISA). Briefly, a capture antibody specific to IFNγ BD Bioscience, #51-2525kc) is coated onto a polyvinylidene fluoride (PVDF) membrane in a microplate overnight at 4° C. The plate is blocked with serum/protein to prevent nonspecific binding to the antibody. After blocking, effector cells (such as splenocytes isolated from PSMA immunized mice) and targets (such as PSMA peptides from peptide library, target cells pulsed with peptides or tumor cells expressing the relevant antigens) or mitogen (which will stimulate splenocytes non-specifically to produce IFNγ[…] are added to the wells and incubated overnight at 37° C. in a 5% CO2 incubator. Cytokine secreted by effector cells are captured by the coating antibody on the surface of the PVDF membrane. After removing the cells and culture media, 100 μl of a biotinylated polyclonal anti-mouse IFNγ antibody (0.5 mg/ml-BD Bioscience, #51-1818 kz) was added to each of the wells for detection. The spots are visualized by adding streptavidin-horseradish peroxidase (HRP, BD Bioscience, #557630) and the precipitate substrate, 3-amino-9-ethylcarbazole (AEC), to yield a red color spot. Each spot represents a single cytokine producing T cell. In general, in the studies disclosed here the ELISpot assay was set up as follows: 5×10^5 splenocytes from PSMA immunized mice were cultured (1) in the presence of PSMA specific peptides derived from a PSMA peptide library (see Table 16) made of 15-amino acid peptides overlapping by 11 amino acids, (2) with known HLA A2.1 restricted PSMA specific peptides, or (3) with tumor cells. To measure the recognition of endogenous antigen presentation, splenocytes were cultured with a human HLA A2 prostate cancer cells (i.e. LNCaP, available from ATCC) that naturally express PSMA or cultured with HLA A2 tumor cells transduced with adenovirus encoding and thus expressing the human PSMA modified antigen. In addition, human PSMA ECD protein was added to the ELISpot assay to measure specifically CD4 IFNγ[…] producing cells. For controls where appropriate, HLA A2 restricted HER-2 specific peptide p168-175 or tumor cells not expressing PSMA or irrelevant protein such as BSA were used as a negative control in the IFNγ […]ELISpot assay. […]

Details of data set [1]: species or system Indian Rhesus macaques. The note with it: rhesus monkey, in vivo, 10 mg/kg. The procedure: Three animals per treatment group were injected with the anti-CTLA-4 antibody Tremelimumab at 10 mg/kg, either with a single intravenous injection into the saphenous vein or multiple 0.2 ml intradermal bilateral injections in the upper thigh in proximity to the inguinal draining lymph nodes. Blood samples were collected at 0, 1, 2, 4, 8, 12, 24, and 48 hrs post injection into 2.0 ml vaccutainer tubes containing lithium heparin as the anticoagulant. Plasma was collected from the supernatant in the vaccutainer tubes after centrifugation at 1500×g at 4° C. for 10 min. The levels of Tremelimumab in the plasma was measured by a quantitative ELISA assay according to the procedure provided below.
Tremelimumab Quantitative ELISA Assay Procedure. The 384-well high bind assay plates (VWR-Greiner Bio-One Cat #82051-264) were coated with 25 μl/well of CD-152 (CTLA-4; Ancell Immunology Research Products Cat #501-020) at 1.0 μg/ml in 100 mM carbonate-bicarbonate coating buffer and incubated overnight at 4° C. […] The colorimetric reaction was stopped by addition of 12.5 μL/well 1N Sulfuric acid and the absorbance then read at 450 nm. The amount of Tremelimumab in each sample was quantified using the standard curve with 0.27 to 67 ng/mL used as the quantitative range.

Like-named read-outs stand apart in the source and are kept apart here.

With “PSMA modified: membrane-bound polypeptide of amino acids 15-750 of human PSMA, SEQ ID NO: 9; tested as DNA construct”, the “IFN-γ SFC/1 × 10^6 splenocytes” value in the data set on human PSMA (Table 2, HLA A2.1 restricted peptide PSMA p275, ( ) = standard deviation) is 304 (21) SFC/1 × 10^6 splenocytes; in the data set on human PSMA (Table 2, HLA A2.1 restricted peptide PSMA p627, ( ) = standard deviation), 222 (14) SFC/1 × 10^6 splenocytes; in the data set on human PSMA (Table 2, HLA A2.1 restricted peptide PSMA p662, ( ) = standard deviation), 925.1 (77) SFC/1 × 10^6 splenocytes; in the data set with human PSMA (Table 2, HLA A2.1 restricted peptide PSMA p663, ( ) = standard deviation), 1524.9 (45) SFC/1 × 10^6 splenocytes; in the data set with human PSMA (Table 2, PC3 tumor cells (no PSMA, negative control), ( ) = standard deviation) it was 1 (1) SFC/1 × 10^6 splenocytes; with human PSMA (Table 2, PSMA ECD protein, ( ) = standard deviation), 731 (16) SFC/1 × 10^6 splenocytes. The “IFN-γ SFC/1 × 10^6 splenocytes” value in the data set on human PSMA (Table 2, PSMA+ HLA A2.1 LNCaP tumor cells, ( ) = standard deviation) is recorded as 96 (12) SFC/1 × 10^6 splenocytes; in the data set on human PSMA (Table 2, target peptide PSA p64, ( ) = standard deviation) it was 2 (4) SFC/1 × 10^6 splenocytes.
As for “Tremelimumab: fully human IgG2 anti-CTLA-4 monoclonal antibody, CAS 745013-59-6, SEQ ID NOs:42 and 43”, the AUC0-24 in data set [1] turned out to be 4900 µg·h/mL; in data set [1] (iv) it was 7200 µg·h/mL.
